# Data published in patent publication US7880007B2, “Bicyclic substituted phenyl piperidine modulators of muscarinic receptors” (Vertex Pharmaceuticals Incorporated, priority 2004, dated 2011).
# Legend:
# Assay type in all cases: cell-based
# M2 muscarinic receptor = target: T1, M2 muscarinic receptor (Homo sapiens, UniProt P08172); test: Functional mobilization of intracellular calcium (FLIPR), M2-CHO cells; conditions: for M2 Activity: M2-CHO cells, calcium mobilization (FLIPR)
# T1 construct: expressed in transfected cells; host or cells: CHO (M2-CHO)
# T1 sequence (P08172 1-466): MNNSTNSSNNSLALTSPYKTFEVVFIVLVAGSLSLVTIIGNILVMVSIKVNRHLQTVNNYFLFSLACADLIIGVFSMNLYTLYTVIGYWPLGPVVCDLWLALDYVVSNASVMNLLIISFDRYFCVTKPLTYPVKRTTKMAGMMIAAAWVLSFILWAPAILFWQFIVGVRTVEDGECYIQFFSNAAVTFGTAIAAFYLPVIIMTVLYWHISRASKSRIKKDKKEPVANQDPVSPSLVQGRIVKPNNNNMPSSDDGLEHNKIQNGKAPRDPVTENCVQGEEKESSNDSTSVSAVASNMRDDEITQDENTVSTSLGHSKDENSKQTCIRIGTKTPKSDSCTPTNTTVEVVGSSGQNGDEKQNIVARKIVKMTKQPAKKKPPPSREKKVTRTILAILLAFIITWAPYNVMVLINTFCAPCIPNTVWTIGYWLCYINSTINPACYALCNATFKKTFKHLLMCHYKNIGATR
# Procedure, shortened: (§1)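 FLIPR fluorescence (ex 488, em 540 nm) recorded 60 sec after compound addition to dye-loaded CHO cells. Agonist mode: compound alone. Antagonist mode: 15 min compound pre-incubation, then carbachol at EC80, or co-application. Efficacy expressed as % of maximal carbachol response.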
# M4 muscarinic receptor = target: T2, M4 muscarinic receptor (Homo sapiens, UniProt P08173); test: Functional mobilization of intracellular calcium (FLIPR), M4-CHO cells; conditions: for M4 Activity: M4-CHO cells, calcium mobilization (FLIPR)
# T2 construct: expressed in transfected cells; host or cells: CHO (M4-CHO)
# T2 sequence (P08173 1-479): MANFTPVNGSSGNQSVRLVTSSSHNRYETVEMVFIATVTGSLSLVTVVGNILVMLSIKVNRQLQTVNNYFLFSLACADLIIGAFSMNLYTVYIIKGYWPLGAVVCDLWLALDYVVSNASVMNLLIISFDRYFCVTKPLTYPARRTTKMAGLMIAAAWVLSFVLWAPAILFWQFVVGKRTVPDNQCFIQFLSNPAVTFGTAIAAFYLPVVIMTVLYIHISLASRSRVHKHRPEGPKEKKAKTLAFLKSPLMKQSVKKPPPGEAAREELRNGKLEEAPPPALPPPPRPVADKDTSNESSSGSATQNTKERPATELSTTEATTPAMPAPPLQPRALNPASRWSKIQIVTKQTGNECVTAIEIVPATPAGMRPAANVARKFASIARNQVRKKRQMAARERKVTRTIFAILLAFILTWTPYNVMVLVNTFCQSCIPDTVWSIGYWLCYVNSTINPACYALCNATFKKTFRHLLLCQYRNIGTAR
# Procedure, shortened: as §1
# M3 muscarinic receptor = target: T3, M3 muscarinic receptor (Homo sapiens, UniProt P20309); test: Functional mobilization of intracellular calcium (FLIPR), M3-CHO cells; conditions: for M3 Activity: M3-CHO cells, calcium mobilization (FLIPR)
# T3 construct: expressed in transfected cells; host or cells: CHO (M3-CHO)
# Procedure, shortened: as §1
# M1 muscarinic receptor = target: T4, M1 muscarinic receptor (Homo sapiens, UniProt P11229); test: Functional mobilization of intracellular calcium (FLIPR), M1-CHO cells; conditions: for M1 Activity: M1-CHO cells, calcium mobilization (FLIPR)
# T4 construct: expressed in transfected cells; host or cells: CHO (M1-CHO)
# T4 sequence (P11229 1-460): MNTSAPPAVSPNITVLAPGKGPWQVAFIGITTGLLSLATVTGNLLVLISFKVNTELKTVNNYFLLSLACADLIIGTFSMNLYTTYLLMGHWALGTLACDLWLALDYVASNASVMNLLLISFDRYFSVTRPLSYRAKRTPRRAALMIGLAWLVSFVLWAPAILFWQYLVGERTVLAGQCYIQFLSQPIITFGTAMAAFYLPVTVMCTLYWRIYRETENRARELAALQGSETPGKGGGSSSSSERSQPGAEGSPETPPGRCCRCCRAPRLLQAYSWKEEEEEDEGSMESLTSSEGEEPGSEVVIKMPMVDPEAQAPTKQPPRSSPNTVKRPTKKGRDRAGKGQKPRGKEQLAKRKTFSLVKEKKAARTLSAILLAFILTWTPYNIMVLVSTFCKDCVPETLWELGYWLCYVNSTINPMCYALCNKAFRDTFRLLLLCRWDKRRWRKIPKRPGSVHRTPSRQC
# Procedure, shortened: as §1
# [1] = 100% efficacy = maximum response obtained with the Carbachol control
# T3 sequence (P20309 whole entry): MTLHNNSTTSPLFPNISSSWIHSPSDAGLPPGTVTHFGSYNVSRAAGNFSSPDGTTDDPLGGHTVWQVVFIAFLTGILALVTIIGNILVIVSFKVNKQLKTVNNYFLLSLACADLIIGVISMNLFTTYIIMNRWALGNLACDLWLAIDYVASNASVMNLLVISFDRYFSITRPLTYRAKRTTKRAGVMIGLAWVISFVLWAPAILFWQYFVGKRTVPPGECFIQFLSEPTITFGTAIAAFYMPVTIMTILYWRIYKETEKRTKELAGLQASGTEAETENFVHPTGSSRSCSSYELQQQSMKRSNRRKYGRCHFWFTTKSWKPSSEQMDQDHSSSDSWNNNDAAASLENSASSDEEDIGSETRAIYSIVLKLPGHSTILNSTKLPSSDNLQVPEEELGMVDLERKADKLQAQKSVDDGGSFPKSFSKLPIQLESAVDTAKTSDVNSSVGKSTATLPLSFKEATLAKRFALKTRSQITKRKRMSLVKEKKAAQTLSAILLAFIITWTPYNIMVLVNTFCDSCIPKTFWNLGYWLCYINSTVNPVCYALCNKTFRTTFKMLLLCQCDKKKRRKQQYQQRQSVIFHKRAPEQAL
SMILES,Emax (M2 muscarinic receptor; [1]),M2 Activity (M2 muscarinic receptor),Emax (M4 muscarinic receptor; [1]),M4 Activity (M4 muscarinic receptor),Emax (M3 muscarinic receptor; [1]),M3 Activity (M3 muscarinic receptor),Emax (M1 muscarinic receptor; [1]),M1 Activity (M1 muscarinic receptor),M2 Efficacy (M2 muscarinic receptor; [1]),M4 Efficacy (M4 muscarinic receptor; [1]),M3 Efficacy (M3 muscarinic receptor; [1]),M1 Efficacy (M1 muscarinic receptor; [1])
COc1ccc(-c2ccc(C(=O)Nc3nccs3)cc2)cc1C1CCN(C2CCCCC2)CC1 [Compound 323],< 25%,+ (activity was measured to be greater than 5.0 μM),25 to 100%,++ (activity was measured to be from 1.0 μM to 5.0 μM),< 25%,+ (activity was measured to be greater than 5.0 μM),< 25%,+ (activity was measured to be greater than 5.0 μM),,,,
CCC1(O)CCC(N2CCC(c3cc(Cl)ccc3OC)CC2)CC1 (stereo not drawn) [Compound 324],< 25%,+ (activity was measured to be greater than 5.0 μM),25 to 100%,+++ (activity was measured to be less than 1.0 μM),< 25%,+ (activity was measured to be greater than 5.0 μM),< 25%,+ (activity was measured to be greater than 5.0 μM),,,,
"COc1ccc(C(C)(C)C)cc1C1CCN([C@@H]2C[C@@H]3CC[C@H]2C3)CC1 [Compound 325, 1-((1S,2R,4R)-bicyclo[2.2.1]heptan-2-yl)-4-(5-tert-butyl-2-methoxy-phenyl) piperidine]",25 to 100%,+ (activity was measured to be greater than 5.0 μM),25 to 100%,++ (activity was measured to be from 1.0 μM to 5.0 μM),25 to 100%,+ (activity was measured to be greater than 5.0 μM),25 to 100%,++ (activity was measured to be from 1.0 μM to 5.0 μM),,,,
COc1ccc(Cl)cc1C1(F)CCN(CC2CC3CCC2C3)CC1 (stereo not drawn) [Compound 326],25 to 100%,+ (activity was measured to be greater than 5.0 μM),25 to 100%,++ (activity was measured to be from 1.0 μM to 5.0 μM),< 25%,+ (activity was measured to be greater than 5.0 μM),25 to 100%,+ (activity was measured to be greater than 5.0 μM),,,,
CCCC1CCC(N2CCC(F)(c3cc(F)ccc3OC)CC2)CC1 (stereo not drawn) [Compound 327],25 to 100%,+ (activity was measured to be greater than 5.0 μM),25 to 100%,++ (activity was measured to be from 1.0 μM to 5.0 μM),< 25%,+ (activity was measured to be greater than 5.0 μM),25 to 100%,++ (activity was measured to be from 1.0 μM to 5.0 μM),,,,
CNC(=O)c1ccc(-c2ccc(OC)c(C3CCN(C4C[C@H]5CC[C@H]4C5)CC3)c2)cc1Cl (stereo partly drawn) [Compound 328],< 25%,+ (activity was measured to be greater than 5.0 μM),25 to 100%,++ (activity was measured to be from 1.0 μM to 5.0 μM),< 25%,+ (activity was measured to be greater than 5.0 μM),< 25%,+ (activity was measured to be greater than 5.0 μM),,,,
Cc1ccc(C)c(C2CCN(CC3CC4C=CC3C4)CC2)c1 (stereo not drawn) [Compound 329],< 25%,+ (activity was measured to be greater than 5.0 μM),25 to 100%,++ (activity was measured to be from 1.0 μM to 5.0 μM),,+ (activity was measured to be greater than 5.0 μM),25 to 100%,+ (activity was measured to be greater than 5.0 μM),,,,
CCOC(=O)N1C2CCC1CC(N1CCC(c3cc(F)ccc3OC)CC1)C2 (stereo not drawn) [Compound 330],25 to 100%,+++ (activity was measured to be less than 1.0 μM),25 to 100%,+++ (activity was measured to be less than 1.0 μM),< 25%,+ (activity was measured to be greater than 5.0 μM),25 to 100%,+++ (activity was measured to be less than 1.0 μM),,,,
"COc1ccc(Cl)cc1C1CCN(C2CCC3(CC2)OCCO3)CC1 [Compound 331, 4-(5-chloro-2-methoxyphenyl)-1-(1,4-dioxaspiro[4.5]decan-8-yl)piperidine]",< 25%,+ (activity was measured to be greater than 5.0 μM),25 to 100%,+++ (activity was measured to be less than 1.0 μM),< 25%,+ (activity was measured to be greater than 5.0 μM),25 to 100%,+ (activity was measured to be greater than 5.0 μM),,,,
COc1ccc(-c2ccc(S(=O)(=O)N3CCCC3)cc2)cc1C1CCN(C2CCCCC2)CC1 [Compound 332],< 25%,+ (activity was measured to be greater than 5.0 μM),25 to 100%,+ (activity was measured to be greater than 5.0 μM),< 25%,+ (activity was measured to be greater than 5.0 μM),25 to 100%,+ (activity was measured to be greater than 5.0 μM),,,,
Cc1c(C2CCN(C3CCOCC3)CC2)cccc1C(F)(F)F [Compound 333],< 25%,+ (activity was measured to be greater than 5.0 μM),25 to 100%,++ (activity was measured to be from 1.0 μM to 5.0 μM),< 25%,+ (activity was measured to be greater than 5.0 μM),< 25%,+ (activity was measured to be greater than 5.0 μM),,,,
CCOC(=O)N1C2CCC1CC(N1CCC(F)(c3cc(F)ccc3OC)CC1)C2 (stereo not drawn) [Compound 334],< 25%,+ (activity was measured to be greater than 5.0 μM),25 to 100%,+++ (activity was measured to be less than 1.0 μM),< 25%,+ (activity was measured to be greater than 5.0 μM),25 to 100%,+++ (activity was measured to be less than 1.0 μM),,,,
COc1ccc(Cl)cc1C1CCN(C2CCC(=NOc3ccccc3)CC2)CC1 (stereo not drawn) [Compound 336],,+ (activity was measured to be greater than 5.0 μM),,+++ (activity was measured to be less than 1.0 μM),,+ (activity was measured to be greater than 5.0 μM),,++ (activity was measured to be from 1.0 μM to 5.0 μM),+ (efficacy was calculated to be less than 25%),++ (efficacy was calculated to be from 100% to 25%),+ (efficacy was calculated to be less than 25%),++ (efficacy was calculated to be from 100% to 25%)
CCOC(=O)N1CCC(CN2CCC(c3cccc(C(F)(F)F)c3C)CC2)CC1 [Compound 337],< 25%,+ (activity was measured to be greater than 5.0 μM),25 to 100%,+++ (activity was measured to be less than 1.0 μM),< 25%,+ (activity was measured to be greater than 5.0 μM),25 to 100%,++ (activity was measured to be from 1.0 μM to 5.0 μM),,,,
